Measured values as given in patent US5763439A, “Pyridazinone derivatives or their salts, processes for their production, and anti-shock agents containing them” (Ishihara Sangyo Kaisha Ltd., priority 1993, dated 1998).

Tests used:
[1] = system: enteric hemorrhage of each rat; assay: Test Example 1: inhibition of enteric hemorrhage induced by intravenous lipopolysaccharide (E. coli) in rats; assay type: in vivo, SD male rats; details: ip, 30 min before LPS 10 mg/kg i.v., 1 h after LPS, read-out: Inhibition rate; for inhibition in vivo at 12.5 mg/kg: 12.5 mg/kg i.p.; for inhibition in vivo at 25 mg/kg: 25 mg/kg i.p.; for inhibition in vivo at 50 mg/kg: 50 mg/kg i.p.
Method: A drug having a test compound dissolved in the form of its Na^+ salt or Cl^- salt in saline or suspended in saline containing 0.5% by weight of carboxymethyl cellulose (manufactured by Nakalai Tesque K. K., hereinafter referred to simply as CMC), was intraperitonially injected to SD male rats of seven weeks old. […] One hour after the injection of the lipopolysaccharide, enteric hemorrhage of each rat was inspected, and the degree of hemorrhage was evaluated by the following ratings:
(§1) 2: Slight subepithelial congestion
(§2) 4: Subepithelial congestion over a wide range and slight submucous congestion
6: Submucous congestion over a wide range, flow out of blood from submucous tissues and necrosis
For the control, the test was conducted in the same manner except that no test compound was added.
The inhibition rate was obtained by the following formula.
(§3) Inhibition rate (%)=(A-B)/A×100
(§4) B: rating of a rat administered with a test compound

SD male rats = assay: Test Example 3: survival of rats after intravenous lipopolysaccharide (E. coli); assay type: in vivo; details: 50 mg/kg i.p. 30 min before and again 3 h after LPS 10 mg/kg i.v.; 48 h; control 0%
Method: A drug having a test compound suspended in saline containing 0.5% by weight of CMC, was intraperitonially administered to SD male rats of seven weeks old so that the dose would be 50 mg/kg. 30 minutes after the injection of the drug, lipopolysaccharide derived from E. coli (manufactured by Difco Company, Product No. 0127:B8) was intravenously injected into the tail vein of each rat so that the dose would be 10 mg/kg. Three hours after the injection of the lipopolysaccharide, the drug was again intraperitonially administered in the same amount.
(§5) Survival rate (%)=(number of survived animals/number of tested

[2] = Test Example 2: Acute Toxicity; details: mouse, in vivo, ip, DDY male mice, five mice per group, read-out: 50% lethal dose LD50
Method: Using DDY male mice of five weeks old, each group consisted of five mice. A test compound was suspended in saline containing 0.5% by weight of CMC and intraperitonially injected at a dose of 0.1 ml/10 g. 24 hours after the injection, survival or death was observed, and the number of death/the number of tested animals was obtained, and the 50% lethal dose LD50 was estimated, whereby LD50 of each of Compound Nos. 4, 9, 10, 15, 21, 25, 30, 33, 37, 44, 47, 58, 60 and 67 was at least 100 mg/kg.

DDY male mice = assay: Test Example 4: survival of mice after intravenous platelet-activating factor (PAF); assay type: in vivo; details: 100 mg/kg i.p. 1 h before PAF (10 μg/ml, 15 ml/kg i.v.); 1 h after PAF; control 0% (Nos. 21, 71, 78) or 14% (Nos. 22, 47)
Method: A drug having a test compound dissolved in the form of its Na^+ salt or or Cl^- salt in saline or suspended in saline containing 0.5% by weight of CMC, was intraperitonially injected to DDY male mice of five weeks old so that the dose would be 100 mg/kg. One hour after the injection of the drug, a solution (containing 1% by weight of dimethylsulfoxide) having a platelet-activating factor (PAF) dissolved in saline to a concentration of 10 μg/ml, was intravenously injected into the tail vein of each mouse in an amount of 15 ml/kg.
One hour after the injection of PAF, survival or death of each mouse was observed, and the survival rate was obtained by the following formula, whereby with Compound Nos. 21, 47, 71 and 78, the survival rate was 100%, and with Compound No. 22, the survival rate was 80%.
Further, for the control, the test was conducted in the same manner except that no test compound was added, whereby with each control corresponding to the test group for each of Compound Nos. 21, 71 and 78, the survival rate was 0%, and in the case of Compound Nos. 22 and 47, the survival rate of the control was 14%.
as §5

[3] = system: enteric hemorrhage of each rat; assay: Test Example 5: inhibition of enteric hemorrhage induced by intravenous PAF in rats; assay type: in vivo, SD male rats; details: 12.5 mg/kg i.p. 30 min before PAF (10 μg/ml, 1 ml/kg i.v.); 1 h after PAF
Method: A drug having a test compound dissolved in the form of its Na^+ salt or or Cl^- salt in saline or suspended in saline containing 0.5% by weight of CMC, was intraperitonially injected to SD male rats of seven weeks old so that the dose of the test compound would be 12.5 mg/kg. 30 minutes after the injection of the drug, a solution (containing 1% by weight of dimethylsulfoxide) having PAF dissolved in saline to a concentration of 10 μg/ml, was intravenously injected into the tail vein of each rat in an amount of 1 ml/kg.
One hour after the injection of PAF, enteric hemorrhage of each rat was inspected, and the degree of hemorrhage was evaluated by the following ratings:
as §1, §2
6: Submucous congestion over a wide range, flow out of blood from the submucous tissues and necrosis
as §3, §4

Question: With Cn1ncc(NCc2ccncc2)c(CO)c1=O [Compound No. 70, 4-hydroxymethyl-2-methyl-5-(4-pyridylmethylamino)pyridazin-3-(2H)-one] as the compound, how does the inhibition in vivo at 12.5 mg/kg [1] read?
Answer: The inhibition in vivo at 12.5 mg/kg was 72%.

Question: And the Survival rate (SD male rats)?
Answer: The Survival rate was 50%.

Question: For CC(C)(C)n1ncc(NCc2ccncc2)c(C#N)c1=O [Compound No. 21, 2-tert-butyl-4-cyano-5-(4-pyridylmethylamino)pyridazin-3-(2H)-one], which inhibition in vivo at 12.5 mg/kg [1] is on record?
Answer: Its inhibition in vivo at 12.5 mg/kg is 65%.

Question: What about the inhibition in vivo at 25 mg/kg [1] of the same compound?
Answer: The inhibition in vivo at 25 mg/kg was 96%.

Question: What about the inhibition in vivo at 50 mg/kg [1] of the same compound?
Answer: Its inhibition in vivo at 50 mg/kg is 100%.

Question: And the LD50 at 24 h [2]?
Answer: Its LD50 at 24 h is at least 100 mg/kg.

Question: And the Survival rate (DDY male mice)?
Answer: The Survival rate was 100%.

Question: Which inhibition in vivo at 12.5 mg/kg [1] does the source give for COCc1c(NCc2ccncc2)cnn(C)c1=O [Compound No. 105, 4-methoxymethyl-2-methyl-5-(4-pyridylmethylamino)pyridazin-3-(2H)-one] here?
Answer: The inhibition in vivo at 12.5 mg/kg was 92%.

Question: Which inhibition in vivo at 12.5 mg/kg [1] does the source give for CCn1ncc(NCc2ccncc2)c(C#N)c1=O [Compound No. 47, 4-cyano-2-ethyl-5-(4-pyridylmethylamino)pyridazin-3-(2H)-one] here?
Answer: Its inhibition in vivo at 12.5 mg/kg is 75%.

Question: What about the LD50 at 24 h [2] of the same compound?
Answer: The LD50 at 24 h was at least 100 mg/kg.

Question: What about the Survival rate (DDY male mice) of the same compound?
Answer: The Survival rate was 100%.

Question: For CC(C)(C)n1ncc(NCc2ccncc2)c(C=O)c1=O [Compound No. 24, 2-tert-butyl-4-formyl-5-(4-pyridylmethylamino) pyridazin-3-(2H)-one], which inhibition in vivo at 50 mg/kg [1] is on record?
Answer: The inhibition in vivo at 50 mg/kg was 100%.

Question: With Cc1c(NC(=O)c2ccncc2)cnn(C(C)(C)C)c1=O [Compound No. 1, 2-tert-butyl-4-methyl-5-(4-pyridylcarbonylamino)pyridazin-3-(2H)-one] as the compound, how does the inhibition in vivo at 25 mg/kg [1] read?
Answer: Its inhibition in vivo at 25 mg/kg is 96%.

Question: What does the source list for COC(=O)c1c(NCc2ccncc2)cnn(C(C)(C)C)c1=O [Compound No. 22, 2-tert-butyl-4-methoxycarbonyl-5-(4-pyridylmethylamino)pyridazin-3-(2H)-one]?
Answer: inhibition in vivo at 12.5 mg/kg [1]: 41%; inhibition in vivo at 25 mg/kg [1]: 100%; Survival rate (DDY male mice): 80%

Question: For CC(C)(C)n1ncc(NCc2ccncc2)c(N)c1=O [Compound No. 10, 4-amino-2-tert-butyl-5-(4-pyridylmethylamino)pyridazin-3-(2H)-one], which inhibition in vivo at 12.5 mg/kg [1] is on record?
Answer: Its inhibition in vivo at 12.5 mg/kg is 50%.

Question: And the inhibition in vivo at 50 mg/kg [1]?
Answer: The inhibition in vivo at 50 mg/kg was 94%.

Question: And the LD50 at 24 h [2]?
Answer: The LD50 at 24 h was at least 100 mg/kg.

Question: Which inhibition in vivo at 12.5 mg/kg [1] does the source give for CC(C)(C)n1ncc(NCc2ccncc2)c(C=NCc2ccncc2)c1=O [Compound No. 2, 2-tert-butyl-5-(4-pyridylmethylamino)-4-(4-pyridylmethyliminomethylidenyl)pyridazin-3-(2H)-one] here?
Answer: The inhibition in vivo at 12.5 mg/kg was 75%.

Question: And the inhibition in vivo at 25 mg/kg [1]?
Answer: The inhibition in vivo at 25 mg/kg was 98%.

Question: Which LD50 at 24 h [2] does the source give for CC(C)(C)n1ncc(NCc2ccncc2)c(N(S(C)(=O)=O)S(C)(=O)=O)c1=O [Compound No. 30, 2-tert-butyl-4-N,N-bis(methanesulfonyl)amino-5-(4-pyridylmethylamino)pyridazin-3-(2H)-one] here?
Answer: Its LD50 at 24 h is at least 100 mg/kg.

Question: For COCc1c(N(C)Cc2ccncc2)cnn(C)c1=O [Compound No. 73, 4-methoxymethyl-2-methyl-5-(N-methyl-4-pyridylmethylamino)pyridazin-3-(2H)-one], which inhibition in vivo at 12.5 mg/kg [1] is on record?
Answer: Its inhibition in vivo at 12.5 mg/kg is 76%.

Question: And the Survival rate (SD male rats)?
Answer: The Survival rate was 75%.

Question: What about the Inhibition rate [3] of the same compound?
Answer: The Inhibition rate was 92%.

Question: What does the source list for CC(C)(C)n1ncc(NCc2ccncc2)c(S(C)(=O)=O)c1=O [Compound No. 9, 2-tert-butyl-4-methanesulfonyl-5-(4-pyridylmethylamino)pyridazin-3-(2H)-one]?
Answer: inhibition in vivo at 50 mg/kg [1]: 43%; LD50 at 24 h [2]: ≥ 100 mg/kg

Question: Which inhibition in vivo at 12.5 mg/kg [1] does the source give for C[S+]([O-])c1c(NCc2ccncc2)cnn(C(C)(C)C)c1=O (stereo not shown) [Compound No. 8, 2-tert-butyl-4-methanesulfinyl-5-(4-pyridylmethylamino)pyridazin-3-(2H)-one] here?
Answer: The inhibition in vivo at 12.5 mg/kg was 72%.

Question: For CSc1c(NCc2ccncc2)cnn(C(C)(C)C)c1=O [Compound No. 7, 2-tert-butyl-4-methylthio-5-(4-pyridylmethylamino)pyridazin-3-(2H)-one], which inhibition in vivo at 12.5 mg/kg [1] is on record?
Answer: The inhibition in vivo at 12.5 mg/kg was 78%.

Question: What about the inhibition in vivo at 50 mg/kg [1] of the same compound?
Answer: Its inhibition in vivo at 50 mg/kg is 100%.

Question: Which inhibition in vivo at 100 mg/kg ([1]; 100 mg/kg i.p.) does the source give for CON=Cc1c(NCc2ccncc2)cnn(C(C)(C)C)c1=O [Compound No. 16, 2-tert-butyl-5-(4-pyridylmethylamino)-4-methoxyiminomethylidenylpyridazin-3-(2H)-one] here?
Answer: The inhibition in vivo at 100 mg/kg was 100%.

Question: What does the source list for CC1CCOC(c2c(NCc3ccncc3)cnn(C(C)(C)C)c2=O)O1 (stereo not shown) [Compound No. 44, 2-tert-butyl-4-(4-methyl-1,3-dioxan-2-yl)-5-(4-pyridylmethylamino)pyridazin-3-(2H)-one]?
Answer: inhibition in vivo at 12.5 mg/kg [1]: 77%; LD50 at 24 h [2]: ≥ 100 mg/kg

Question: With CCC(=O)Nc1c(NCc2ccncc2)cnn(C(C)(C)C)c1=O [Compound No. 28, 2-tert-butyl-4-propionylamide-5-(4-pyridylmethylamino)pyridazin-3-(2H)-one] as the compound, how does the inhibition in vivo at 12.5 mg/kg [1] read?
Answer: Its inhibition in vivo at 12.5 mg/kg is 42%.

Question: And the inhibition in vivo at 50 mg/kg [1]?
Answer: The inhibition in vivo at 50 mg/kg was 83%.

Question: What does the source list for CC(=O)N(C)c1c(NCc2ccncc2)cnn(C)c1=O [Compound No. 69, 2-methyl-4-(N-methyl)acetylamino-5-(4-pyridylmethylamino)pyridazin-3-(2H)-one]?
Answer: inhibition in vivo at 12.5 mg/kg [1]: 78%; Inhibition rate [3]: 100%
